{
  "source": "patent US11833144B2",
  "about": "“Treating autoimmune disease” (Mayo Foundation for Medical Education and Research, priority 2020, dated 2023)",
  "key": {"activated human B cells": {"tested_on": "activated human B cells", "test": "Seahorse OCR / ECAR in activated human B cells", "assay_type": "cell-based", "procedure": "The bioenergetic activities of the OCR and ECAR were measured using a Seahorse XFe96 Extracellular Flux Analyzed following established protocols (Agilent). Briefly, B cells were seeded at 200,000 cells/well on Cell-Tak (Corning) coated XFe96 plate with fresh XF media (Seahorse XF RPMI medium containing 10 mM glucose, 2 mM L-glutamine, and 1 mM sodium pyruvate, PH 7.4; all reagents from Agilent). OCR was measured in the presence of Oligomycin (1.5 μM; Sigma-Aldrich), FCCP (1.5 μM; Sigma-Aldrich), and Rotenone (1 μM; Sigma-Aldrich)/Antimycin A (1 μM; Sigma-Aldrich) in Mito Stress assay. For ECAR measurement, B cells were seeded in XFe96 plate with fresh Seahorse XF RPMI medium with 2 mM L-glutamine (PH 7.4), and treated with glucose (10 mM; Agilent), Oligomycin (1.5 and 2-DG (50 mM; Sigma-Aldrich) orderly in Glycolysis Stress assay."}, "mice": {"tested_on": "mice", "test": "Mice fed SSI-4 chow: serum fatty acids (GC-MS) and lymphocyte development", "assay_type": "in vivo, mouse"}},
  "data": [
    {"molecule": "CCCCCCCC/C=C\\CCCCCCCC(=O)O", "note": "[OA, oleic acid]", "values": [
      {"measurement": "human B cell glycolysis (ECAR)", "setting": "activated human B cells; exogenous OA, 72 h", "result": "improved human B cell glycolysis"},
      {"measurement": "respiration (OCR) in activated human B cells", "setting": "activated human B cells; exogenous fatty acid, 72 hours", "result": "augmented respiration"}
    ]},
    {"molecule": "CNC(=O)c1ccnc(NC(=O)N2CCC(Oc3ccccc3Cl)CC2)c1", "note": "[SSI-4, 2-{[4-(2-Chlorophenoxy)piperidine-1-carbonyl]amino}-N-methylpyridine-4-carboxamide]", "values": [
      {"measurement": "CD25+ pre-B cells in bone marrow", "setting": "mice; SSI-4 chow", "result": "significant reduction"},
      {"measurement": "GC percentage and IgA expression in Peyer's patches", "setting": "mice; SSI-4 chow", "result": "modest reduction"},
      {"measurement": "composition of thymocytes", "setting": "mice; SSI-4 chow", "result": "unaffected"},
      {"measurement": "number of peripheral B cells and CD4+ T cells", "setting": "mice; SSI-4 chow", "result": "not affected"},
      {"measurement": "pool of immature B cells and B cell precursors (CD19+ B220int) in bone marrow", "setting": "mice; SSI-4 chow", "result": "significant reduction"},
      {"measurement": "serum OA and PO concentration", "setting": "mice; SSI-4 chow for 1 week, GC-MS", "result": "markedly reduced"},
      {"measurement": "frequency of mature B cells (CD19+IgMloIgD+)", "setting": "mice; SSI-4 chow, spleen", "result": "slightly increased"}
    ]}
  ]
}
